SMILES strings stand for the structures.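 Where inhibition never reached the appropriate level, the endpoint shown equals the highest concentration tested. Otherwise, values were interpolated linearly from a five-concentration, 48-hour dose response in 96-well plates. At the GI50, growth is halved.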 Activity calls are given as the source filed them. Cut-off read from the data, not from the text of the source: active = GI50 up to about 1.1 µM and inactive = higher.

The record followed here is ChEMBL document CHEMBL1201862, “PubChem BioAssay data set” (2004).

Some test systems named below: M14; RXF 393; HOP-62; SF-268; MOLT-4; SNB-75; ACHN; A498; SK-OV-3; K562; SW-620; 786-0; SK-MEL-5; EKVX; NCI-H226; NCI-H522; SR; SN12C; MDA-N.
What all share (test): DTP human tumour cell line panel, 48 h

A word on the GI50: it is the concentration giving 50% growth inhibition. `CC(C)(C)OC(=O)N(CCCN)CCCCN(CCCN)C(=O)OC(C)(C)C`: the GI50 in the assay on M14, in the assay with RXF 393, in the assay on HOP-62, in the assay on SF-268, in the assay on MOLT-4 and with SNB-75 was > 100 µM (inactive) throughout. Also, the GI50 in the assay with ACHN, in the assay on A498, in the assay with SK-OV-3, in the assay with K562, in the assay with SW-620 and with 786-0 was > 100 µM (inactive) throughout. In addition, the GI50 in the assay with SK-MEL-5, with EKVX, in the assay with NCI-H226, with NCI-H522 and with SR was > 100 µM (inactive) in each case.
Take `Cc1[nH]nc(C(=O)N/N=C/c2cccs2)c1/N=N\N(C)C`: the GI50 was 24.7 µM (inactive) in the assay with M14; 14.6 µM (inactive) in the assay on RXF 393; 22 µM (inactive) in the assay with SN12C; 17 µM (inactive) in the assay with HOP-62; 9.4 µM (inactive) in the assay on SF-268; 3.75 µM (inactive) in the assay with MOLT-4. Besides, the GI50 in the assay on SNB-75 was 2.89 µM (inactive); in the assay with ACHN, 2.96 µM (inactive); in the assay with A498, 23.4 µM (inactive); with SK-OV-3, 19.8 µM (inactive); in the assay on K562, 3.9 µM (inactive); with SW-620 it was 15.3 µM (inactive). In addition, the GI50 was 13.6 µM (inactive) in the assay with 786-0; 19.6 µM (inactive) in the assay with SK-MEL-5; 39.4 µM (inactive) in the assay with EKVX; 23.1 µM (inactive) in the assay on NCI-H226; 11.2 µM (inactive) with NCI-H522.
As to `CC(C)=CCC[C@@H](C)c1c2nc3ccccc3sc-2c(C)c(=O)c1O`, the GI50 in the assay with M14 is 4.75 µM (inactive); with RXF 393 it was 9.35 µM (inactive); in the assay on SN12C, 5.74 µM (inactive); in the assay on HOP-62, 4.36 µM (inactive); with SF-268, 3.99 µM (inactive); in the assay with MOLT-4 it was 2.32 µM (inactive). Moreover, the GI50 was 5.53 µM (inactive) in the assay with SNB-75; 2.65 µM (inactive) in the assay with ACHN; 9.84 µM (inactive) with A498; 7.74 µM (inactive) in the assay on SK-OV-3; 8.22 µM (inactive) in the assay with K562; 4.86 µM (inactive) with SW-620. In addition, the GI50 in the assay with 786-0 was 4.9 µM (inactive); in the assay on SK-MEL-5, 3.1 µM (inactive); with EKVX it was 7.62 µM (inactive); with NCI-H226, 3.74 µM (inactive); in the assay on NCI-H522, 1.82 µM (inactive); in the assay on SR, 2.23 µM (inactive).
In the case of `COc1cc2c(cc1OCCN1CCN(CCOc3cc4c(cc3OC)C(=O)N3CCC[C@H]3C=N4)CC1)N=C[C@@H]1CCCN1C2=O`, the GI50 in the assay on M14 is 25.1 µM (inactive); in the assay with RXF 393, 26.1 µM (inactive); in the assay on SN12C, 9.46 µM (inactive); with HOP-62, 30.5 µM (inactive); in the assay with SF-268, 13.1 µM (inactive); in the assay on MOLT-4, 2.06 µM (inactive). Further, the GI50 with SNB-75 was > 76.9 µM (inactive); in the assay with ACHN it was > 39.1 µM (inactive); in the assay on A498, 37.1 µM (inactive); with SK-OV-3 it was > 100 µM (inactive); with K562, 15 µM (inactive); with SW-620, 19.2 µM (inactive). The GI50 is 17.8 µM (inactive) in the assay with 786-0; 17.8 µM (inactive) in the assay with SK-MEL-5; > 96.6 µM (inactive) in the assay on EKVX; 19.4 µM (inactive) in the assay with NCI-H226; 12.1 µM (inactive) in the assay on NCI-H522; 0.362 µM (active) with SR.
Turning to `Oc1c(/N=N/c2ccccc2)c2ccccc2c2ccc3ccccc3c12`, the GI50 with M14 was 57.5 µM (inactive); in the assay on RXF 393, 56.1 µM (inactive); with SN12C it was > 100 µM (inactive); in the assay on HOP-62 it was 43.6 µM (inactive); in the assay with SF-268 it was > 100 µM (inactive); in the assay on MOLT-4, 40.6 µM (inactive). In addition, the GI50 in the assay with SNB-75 was 64.1 µM (inactive); in the assay on ACHN, 55.3 µM (inactive); in the assay with A498, > 100 µM (inactive); in the assay with SK-OV-3, > 100 µM (inactive); in the assay with K562, 35.3 µM (inactive); with SW-620 it was > 100 µM (inactive). The GI50 in the assay with 786-0 was 44.6 µM (inactive); in the assay on SK-MEL-5, > 100 µM (inactive); in the assay with EKVX it was 50.4 µM (inactive); in the assay on NCI-H226, > 100 µM (inactive); in the assay on NCI-H522, > 100 µM (inactive); in the assay with SR, 17.9 µM (inactive).
On to `C=Cc1ccc(C)[n+](C[Si](C)(C)O[Si](C)(C)C)c1`, for which the GI50 in the assay with M14, in the assay with SN12C, with HOP-62, in the assay on SF-268, in the assay with MOLT-4 and in the assay on SNB-75 was > 100 µM (inactive) each time. Further, the GI50 in the assay with ACHN, in the assay with SK-OV-3, with K562, in the assay on SW-620, with 786-0 and in the assay on SK-MEL-5 was > 100 µM (inactive) throughout. In addition, the GI50 in the assay on EKVX, in the assay on NCI-H226, with NCI-H522 and with SR was > 100 µM (inactive) each time.
For the molecule `O=C1c2cc([N+](=O)[O-])cnc2S(=O)(=O)N1c1ccc(Oc2ccccc2)cc1`, the GI50 with M14 is > 100 µM (inactive); with RXF 393, 34.2 µM (inactive); in the assay on SN12C, > 100 µM (inactive); with HOP-62, > 100 µM (inactive); in the assay on MOLT-4, 33 µM (inactive); in the assay with SNB-75, > 100 µM (inactive). In addition, the GI50 with ACHN, in the assay with SK-OV-3, with K562, in the assay on SW-620, with 786-0 and with EKVX was > 100 µM (inactive) each time. Moreover, the GI50 with NCI-H226 is > 100 µM (inactive); in the assay with NCI-H522 it was > 100 µM (inactive); in the assay with SR it was 57 µM (inactive).
As to `COc1ccc(C(=O)C#Cc2cn(C3CC(O)C(CO)O3)c(=O)[nH]c2=O)cc1` (centres undefined), the GI50 is 17.9 µM (inactive) in the assay with M14; 52.2 µM (inactive) in the assay on RXF 393; 28.7 µM (inactive) in the assay on SN12C; > 100 µM (inactive) in the assay on HOP-62; 53 µM (inactive) in the assay on SF-268; 60.3 µM (inactive) in the assay on MDA-N. For the same molecule, the GI50 was 39.4 µM (inactive) with MOLT-4; > 100 µM (inactive) in the assay on SNB-75; > 100 µM (inactive) in the assay on ACHN; > 100 µM (inactive) with SK-OV-3; 36.5 µM (inactive) in the assay with K562; 43.1 µM (inactive) in the assay with SW-620. For the same molecule, the GI50 in the assay on 786-0 is 49.7 µM (inactive); with SK-MEL-5, 28.4 µM (inactive); in the assay on EKVX, > 100 µM (inactive); with NCI-H226, 32 µM (inactive); in the assay with NCI-H522, 11.9 µM (inactive).
Regarding `CCOC(=O)[C@@]1(C)CC(O)C(=O)N1C` (some centres undefined), the GI50 in the assay on M14, with RXF 393, in the assay with SN12C, in the assay with HOP-62, in the assay with SF-268 and in the assay with MOLT-4 was > 100 µM (inactive) throughout. Also, the GI50 in the assay on ACHN, in the assay with SK-OV-3, in the assay on SW-620, in the assay with 786-0, with SK-MEL-5 and in the assay with EKVX was > 100 µM (inactive) in each case. In addition, the GI50 in the assay on NCI-H226, in the assay with NCI-H522 and with SR was > 100 µM (inactive) each time.
As for `COc1ccc2ccnc(Cc3ccc(OCc4ccccc4)c(OC)c3)c2c1`, the GI50 in the assay with M14 is 18 µM (inactive); with SN12C, 14.2 µM (inactive); in the assay with HOP-62, 15.8 µM (inactive); in the assay with SF-268, 22.1 µM (inactive); with MOLT-4, 17.6 µM (inactive); with SNB-75, 27 µM (inactive). Moreover, the GI50 in the assay on ACHN was 23.6 µM (inactive); in the assay with A498 it was 21.8 µM (inactive); with K562, 31 µM (inactive); with SW-620, 33.5 µM (inactive); in the assay with 786-0, 19.2 µM (inactive); in the assay on SK-MEL-5 it was 15.1 µM (inactive). Also, the values for the GI50 in the assay with EKVX and in the assay on NCI-H522 were 17.9 µM (inactive) and 22.8 µM (inactive), respectively.
As to `NCCCCNCCCNC(=O)c1csc(-c2nc(CCN)sc2Cl)n1`, the GI50 in the assay on M14, in the assay on RXF 393, in the assay on SN12C, in the assay with HOP-62, with SF-268 and in the assay with MDA-N was > 100 µM (inactive) throughout. The GI50 in the assay on MOLT-4, in the assay with SNB-75, in the assay with ACHN, with A498, with SK-OV-3 and with K562 was > 100 µM (inactive) throughout. Moreover, the GI50 with SW-620, in the assay on 786-0, with SK-MEL-5, in the assay on EKVX and with NCI-H226 was > 100 µM (inactive) each time.
`O=c1nc(Oc2c(F)c(F)c(F)c(F)c2F)ccn1C1OC(CO)C(O)C1O` (centres undefined): the GI50 is > 100 µM (inactive) in the assay with M14; > 100 µM (inactive) with RXF 393; > 100 µM (inactive) in the assay on SN12C; > 100 µM (inactive) in the assay with HOP-62; > 100 µM (inactive) in the assay with SF-268; 43.9 µM (inactive) with MOLT-4. The GI50 in the assay with SNB-75, with ACHN, in the assay on A498, in the assay on SK-OV-3, in the assay on K562 and in the assay with SW-620 was > 100 µM (inactive) each time. The GI50 with 786-0 was > 100 µM (inactive); in the assay on SK-MEL-5, > 100 µM (inactive); in the assay with EKVX it was > 100 µM (inactive); with NCI-H522, 54.5 µM (inactive); in the assay with SR it was 58.1 µM (inactive).
